Experimental data as given in patent publication US20010031275A1, “Sesamol inhibitor of delta-5-desaturase activity and uses therefor” (priority 1998, published 2001).
Several values for one entry are separate records, joined by “and”; a condition that tells them apart may be missing. Equal values may be shown once. Entries after “also recorded” stand apart in the source; their conditions may differ. Marks after values point to notes of the source that are not given here.

Key:
Δ-5 desaturase enzyme = conditions: Shimizu et al., Lipids 26:512-516 (1991); cited from earlier work
[1] = system: PGE2, IL-10, IL-6 and TNF-α; conditions: fed mice, cited from earlier work
[2] = system: Δ-5 desaturation of ω6 fatty acids; assay: Fatty acid composition of liver membrane phospholipids from mice fed sesamol-supplemented safflower oil diet; format: in vivo, Balb/c mice; conditions: 2 weeks; for DGLA (20:3ω6): control 1.4 ± 0.1; for Docosapentaenoic acid (22:5ω6): control 2.5 ± 0.4; for Δ-5 desaturation (20:4ω6/20:3): ratio Arachidonic acid/Dihomo-γ-linolenic acid, liver phospholipids, SO + 1% sesamol diet, control 18.0 ± 1.7
Experimental: The phospholipid fatty acid composition of the livers were determined, and the data represent mean mole percents of the total fatty acids (±s.d.). The levels of significance between the groups were determined using an unpaired student's t-test (p,0.05).
[…] They were allowed free access to drinking water and the experimental diets were fed at dusk, daily, between 4-5 PM. The weights of the body, and of the liver and spleen were determined on days 4, 7 and 14.
(§1) Diets: The AIN-76A fat-free powder along with 0.05% t-butyl hydroxy toluene, an antioxidant, was mixed with 5 wt % (10% Kcal) of safflower oil (Oilseeds International Ltd., Fresno, Calif.), partitioned into daily rations packaged in separate whirl-pack bags, flushed with N2, and stored at 4° C. Where indicated, these diets were supplemented with 1 wt % sesamol (Aldrich Chemical Company Inc. Milwaukee, Wis.).
Fatty acid analysis: Liver tissues were homogenized and extracted with a mixture of chloroform:methanol(2:1 v/v) containing 0.01% t-butylated hydroxytoluene as an antioxidant. The solvent fraction was isolated and evaporated to dryness under N2 and reconstituted in chloroform. The total phospholipids were separated by thin-layer chromatography on silica gel-H plates (Analtech Inc., Newark, Del.), and the fatty acid methyl esters were derived (Palombo et al., Lipids 29: 643-649 (1994)) and analyzed on a fused silica capillary column (100 m, 0.25 mm ID, 0.20 μm thickness; SP™-2560, Supelco Inc., Bellefonte, Pa.) using a gas chromatograph (5890 Series II) equipped with a mass selective detector (5971, Hewlett-Packard). The results were expressed as relative percent of identified fatty acids on a molar basis, using heptadecaenoic acid (17:0) as an internal standard.
The changes in the fatty acid composition (mean±s.d; mol. %) were determined in the liver membrane phospholipids from mice fed both the SO diets for 2 weeks (Table 1). […] Similar data were obtained in mice fed for as short as 4 days (data not shown).

[3] = system: TNF-α, IL-6, IL-10 and IL-12; assay: Endotoxin-induced in vivo production of cytokines (plasma ELISA) in mice fed sesamol-supplemented SO diet; set-up: species or system Balb/c mice; conditions: SO + 1% sesamol diet, mean ± s.e.; for Tumor Necrosis Factor (TNF)-α: plasma at 1 hour following LPS, SO alone 3,042 ± 428; for Interleukin (IL)-6 / IL-10 / IL-12: plasma at 3 hours following LPS; for Interleukin (IL)-6: SO alone 143 ± 22; for IL-10: SO alone 262 ± 15; for IL-12: SO alone 6,355 ± 482
Experimental: Data represent the levels of […] (means±s.e.) in plasma samples obtained at 1 hour for TNF-α, and at 3 hours for IL-6, IL-10, and IL-12 following LPS exposure. The levels of significance in the differences between the two groups were determined using Dunnett Multiple Comparison test.
as §1
The plasma levels of TNF-α, IL-6, IL-10 and IL-12 were determined according to the manufacturer's instructions using enzyme-linked immunosorbent assay kits (Biosource International, Camarrilo, Calif.).

[4] = system: IL-6, IL-10, IL-12, TNF-α and PGE2; assay: Synthetic sesamol diet in endotoxic mice: plasma cytokines and PGE2 after LPS challenge; format: in vivo, Balb/c mice; conditions: 5% SO + 0.25% synthetic sesamol diet, three weeks, 50 μg/mouse LPS for 90 minutes or three hours
Source text: Proinflammatory mediators play an important role during endotoxic shock. As described herein, naturally occurring sesamol inhibits Δ-5 desaturase activity, and also decreases the production of prostaglandin (PG)E2. No such scientific data are available for the synthetic, pure form of sesamol. Therefore, the effects of consuming synthetic sesamol on proinflammatory immune responses during septic shock were studied. Female Balb/c mice were fed diets supplemented with 5% safflower oil (SO) in the absence or presence of 0.25% synthetic sesamol for three weeks. After a challenge with 50 μg/mouse LPS for 90 minutes or three hours, the plasma levels (pg/ml) of interleukin (IL)-6, IL-10, IL-12, tumor necrosis factor (TNF)-α and PGE2 were determined.

[5] = Weights of body, liver and spleen of mice fed sesamol-supplemented diets; format: in vivo, Balb/c mice
Experimental: Animals: Six 8-week old, inbred, female Balb/c mice (Taconic Farms) were housed in our animal facility with a 12 hour day and 12 hour night cycle. They were allowed free access to drinking water and the experimental diets were fed at dusk, daily, between 4-5 PM. The weights of the body, and of the liver and spleen were determined on days 4, 7 and 14.

[6] = liver membrane phospholipids, 5 wt % SO + 1% sesamol diet, mean ± s.d., n=8
[7] = liver membrane phospholipids, 5 wt % SO + 1% sesamol diet, mean ± s.d., n=8, listed as SO + SESAMOL
[8] = mice fed sesamol-supplemented diets vs SO diets

Q: For c1cc2c(cc1[C@H]1OC[C@H]3[C@@H]1CO[C@@H]3c1ccc3c(c1)OCO3)OCO2 [sesamin], which “inhibition of the activity of Δ-5 desaturase enzyme in vitro” value (Δ-5 desaturase enzyme) is on record?
A: inhibit

Q: What about the “LPS-induced production of IL-6” value ([1]; Chavali et al. 1997) of the same compound?
A: lower

Q: And the “LPS-induced production of IL-10” value ([1]; Chavali et al. 1997)?
A: lower

Q: What about the “LPS-induced production of PGE2” value ([1]; Chavali et al. 1997) of the same compound?
A: lower

Q: What about the “LPS-induced production of TNF-α” value ([1]; Chavali et al.) of the same compound?
A: elevated; also recorded: higher

Q: For Oc1cc2c(cc1[C@H]1OC[C@H]3[C@@H]1CO[C@@H]3c1ccc3c(c1)OCO3)OCO2 [sesaminol], which “inhibition of the activity of Δ-5 desaturase enzyme in vitro” value (Δ-5 desaturase enzyme) is on record?
A: inhibit

Q: For Oc1ccc2c(c1)OCO2 [sesamol, 3,4-methylenedioxyphenol], which “Arachidonic acid (20:4ω6)” value [2, 6] is on record?
A: unchanged

Q: And the “Docosahexaenoic acid (22:6ω3)” value [2, 6]?
A: 9.5 ± 0.4 mole percents

Q: What about the “Oleic acid (18:1ω9)” value [2, 6] of the same compound?
A: 8.2 ± 1.1 mole percents

Q: And the “Palmitic acid (16:0)” value [2, 6]?
A: 19.5 ± 1.4 mole percents

Q: And the “Stearic acid (18:0)” value [2, 6]?
A: 19.2 ± 1.7 mole percents

Q: What about the “Vaccenic acid (18:1ω7)” value [2, 6] of the same compound?
A: 2.6 ± 0.4 mole percents

Q: What about the “DGLA (20:3ω6)” value [2, 6] of the same compound?
A: 1.6±0.1 mole percents and 1.6±1 mole percents

Q: And the “DGLA (20:3ω6)” value [2, 7]?
A: 1.6 ± 0.1^a mole percents

Q: What about the “Docosapentaenoic acid (22:5ω6)” value [2, 6] of the same compound?
A: 1.4±0.1 mole percents

Q: What about the “Docosapentaenoic acid (22:5ω6)” value [2, 7] of the same compound?
A: 1.4 ± 0.1^a mole percents

Q: And the “Arachidonic acid (20:4ω6)” value [2, 7]?
A: 24.9 ± 0.9 mole percents

Q: What about the “Δ-5 desaturation (20:4ω6/20:3)” value [2] of the same compound?
A: 15.6±1.5

Q: What about the “Δ-5 desaturation (20:4ω6/20:3)” value ([2]; listed as SO + SESAMOL) of the same compound?
A: 15.6 ± 1.5^a

Q: What about the “Tumor Necrosis Factor (TNF)-α” value [3] of the same compound?
A: not elevated; also recorded: unaffected; also recorded: did not differ markedly; also recorded: did not differ significantly

Q: And the “Tumor Necrosis Factor (TNF)-α” value ([3]; listed as SO + SESAMOL)?
A: 2,931 ± 461 pg/ml

Q: And the “Interleukin (IL)-6” value [3]?
A: 63 ± 11 ng/mL

Q: What about the “Interleukin (IL)-6” value ([3]; listed as SO + SESAMOL) of the same compound?
A: 63 ± 11 ng/mL

Q: And the IL-10 [3]?
A: unaffected; also recorded: did not differ markedly; also recorded: did not differ significantly

Q: And the IL-10 ([3]; listed as SO + SESAMOL)?
A: 236 ± 20 pg/mL

Q: What about the IL-12 [3] of the same compound?
A: did not differ markedly

Q: And the IL-12 ([3]; listed as SO + SESAMOL)?
A: 6,620 ± 646 pg/ml

Q: What about the IL-10 ([4]; SO alone 314 ± 37) of the same compound?
A: significantly higher

Q: And the IL-10 ([4]; SO alone 314 ± 37, listed as SO + Sesamol)?
A: 490 ± 35 pg/mL

Q: What about the IL-6 ([4]; SO alone 418 ± 51) of the same compound?
A: did not differ

Q: What about the IL-6 ([4]; SO alone 418 ± 51, listed as SO + Sesamol) of the same compound?
A: 360 ± 32 pg/mL

Q: What about the PGE2 ([4]; SO alone 595 ± 68) of the same compound?
A: markedly lower

Q: And the PGE2 ([4]; SO alone 595 ± 68, listed as SO + Sesamol)?
A: 265 ± 39 pg/mL

Q: And the TFN-α ([4]; SO alone 9,497 ± 1425)?
A: markedly lower

Q: And the TFN-α ([4]; SO alone 9,497 ± 1425, listed as SO + Sesamol)?
A: 4,503 pg/ml

Q: What about the IL-12 ([4]; SO alone 11,165 ± 549) of the same compound?
A: markedly lower

Q: What about the IL-12 ([4]; SO alone 11,165 ± 549, listed as SO + Sesamol) of the same compound?
A: 8,969 pg/ml

Q: And the weights of body [5, 8]?
A: not significantly different

Q: What about the weights of livers [5, 8] of the same compound?
A: unaffected; also recorded: not significantly different

Q: And the “weights of the spleen” value [5, 8]?
A: not significantly different

Q: And the “percent gain in body weights” value ([5]; sesamol-supplemented vs SO diet group)?
A: almost identical

Q: And the “inhibition of the activity of Δ-5 desaturase enzyme in vitro” value (Δ-5 desaturase enzyme)?
A: does not inhibit

Q: For c1cc2c(cc1O[C@H]1OC[C@H]3[C@@H]1CO[C@@H]3c1ccc3c(c1)OCO3)OCO2 [sesamolin], which “inhibition of the activity of Δ-5 desaturase enzyme in vitro” value (Δ-5 desaturase enzyme) is on record?
A: inhibit
